The results in this text go back to article PMC4890880 (ACS infectious diseases, 2016).

Data set [1] has as its system Plasmodium berghei (Pb-Luc) exoerythrocytic-stage parasites. The settings on record: read-out: P. berghei (liver) IC50; Table S1, validation set of 50 antimalarials; Pb-Luc.
The test system of data set [2] is P. falciparum 3D7 parasites. Put plainly: Asexual erythrocytic-stage SYBR Green I proliferation assay, 1536-well. The data set is classed as cell-based, Plasmodium falciparum.
For data set [3], the system named is Plasmodium berghei (Pb-Luc) exoerythrocytic-stage parasites. Put plainly: microbe, parasite or virus in culture. The note with it: for inhibition at 10 µM: read-out: PbLuc max inhibition (%) @ 10 uM.
The subject of data set [4] is Plasmodium cynomolgi exoerythrocytic-stage small (hypnozoites) and large (liver stage schizonts) parasites. In words: P. cynomolgi liver assay in primary hepatocytes. The settings on record: Plasmodium cynomolgi, Hepatocyte.
The test system of data set [5] is HepG2-A16-CD81EGFP cells. Put plainly: cells. The note with it: Homo sapiens; for IC50: HepG2, read-out: Tox IC50; for inhibition at 50 µM: HepG2, read-out: Tox max inhibition (%) @ 50 uM; for inhibition at 10 µM: HepG2, read-out: Tox max inhibition (%) @ 10 uM.
In data set [6] the target is QuantiLum Recombinant Luciferase (Photinus pyralis, UniProt P08659). In words: Bioluminescence quantification of compound luciferase inhibition. The settings on record: for Emax: read-out: LucInhib max inhibition.
For data set [7], the system named is HepG2-A16-CD81EGFP cells. The settings on record: human, 50 uM.
The test system of data set [8] is HepG2-A16-CD81EGFP cells. In words: cells. The note with it: Homo sapiens, HepG2, read-out: % inhibition.
Data set [9] concerns HepG2-A16-CD81EGFP cells. Put plainly: cells. The note with it: Homo sapiens, HepG2, read-out: % inhibition. This is another data set of the same source.
Setting [10] is: read-out: P. falciparum (blood) IC50, Table S1, validation set of 50 antimalarials.
Where [11] appears, read: read-out: P. berghei (liver) IC50, Table S1, validation set of 50 antimalarials, Pb-Luc.
[12] abbreviates: Plasmodium falciparum, 3D7, read-out: P. falciparum (blood) IC50, Table S1, validation set of 50 antimalarials.
[13] abbreviates: read-out: P. berghei (liver) IC50.
Setting [14] is: Plasmodium falciparum, 3D7, read-out: P. falciparum (blood) IC50.
The mark [15] stands for this setting: read-out: % inhibition normalized to untreated control, Large.
The mark [16] stands for this setting: read-out: % inhibition normalized to untreated control, Small.
[17] abbreviates: read-out: Inhibition% @ 50 uM rep1.
Setting [18] is: read-out: Inhibition% @ 50 uM rep2.
Setting [19] is: read-out: PbLuc IC50, dose response, 1/3 dilutions, max conc. 10 or 50 uM, unit inferred.
Setting [20] is: read-out: PbLuc max inhibition (%) @ 50 uM.
Where [21] appears, read: HepG2, read-out: HepG2 Tox% @ 50 uM rep1.
Setting [22] is: HepG2, read-out: HepG2 Tox% @ 50 uM rep2.

Where a name gives a salt, the structure may show the parent alone. Read-outs that look alike come from different tables or passages of the source.

QuantiLum Recombinant Luciferase, sequence (P08659 whole entry): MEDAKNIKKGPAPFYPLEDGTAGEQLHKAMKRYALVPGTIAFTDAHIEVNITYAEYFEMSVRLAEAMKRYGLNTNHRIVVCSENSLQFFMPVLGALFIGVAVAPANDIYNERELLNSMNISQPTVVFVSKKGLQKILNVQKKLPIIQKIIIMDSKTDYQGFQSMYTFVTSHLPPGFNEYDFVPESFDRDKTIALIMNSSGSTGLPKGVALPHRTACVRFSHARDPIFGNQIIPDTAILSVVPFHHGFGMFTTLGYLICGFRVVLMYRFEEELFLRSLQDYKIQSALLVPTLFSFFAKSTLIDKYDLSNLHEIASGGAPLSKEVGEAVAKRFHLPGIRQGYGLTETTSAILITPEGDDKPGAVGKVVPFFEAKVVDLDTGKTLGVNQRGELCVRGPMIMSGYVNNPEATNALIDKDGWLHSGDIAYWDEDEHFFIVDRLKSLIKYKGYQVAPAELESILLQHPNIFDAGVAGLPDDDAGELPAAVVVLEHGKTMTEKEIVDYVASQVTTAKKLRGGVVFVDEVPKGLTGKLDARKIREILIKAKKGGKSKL

For `OC(c1cc(C(F)(F)F)nc2c(C(F)(F)F)cccc12)C1CCCCN1` (racemic) [Mefloquine (Racemic), Mefloquine, reference compound], the IC50 is 3060 nM in data set [1] and under 0.4 nM in [2] (setting [10]).
The corresponding values for `CCCCC[C@H]1CN[C@H](C(=O)N[C@H]([C@H]2O[C@H](SC)[C@H](O)[C@@H](O)[C@H]2O)[C@@H](C)Cl)C1` (relative stereo) [Cis-Mirincamycin, reference compound] are over 12500 nM and 7560 nM.
The corresponding values for `CCN(CC)CCCNc1ccnc2cc(Cl)ccc12` [AQ-13, reference compound] are 3160 nM and 8.7 nM.
With `CCN(CC)Cc1cc(Nc2ccnc3cc(Cl)ccc23)ccc1O` [Amodiaquine, reference compound], the IC50 in [3] (setting [11]) is 1590 nM; in data set [2] (setting [12]) it was over 62500 nM.
On the same counts, the results for `CO[C@H]1O[C@@H]2O[C@@]3(C)CC[C@H]4[C@H](C)CC[C@@H]([C@H]1C)[C@@]24OO3` [Artemether, reference compound] are 3140 nM and under 0.4 nM.
The corresponding values for `C[C@@H]1CC[C@H]2[C@@H](C)C(=O)O[C@@H]3O[C@@]4(C)CC[C@@H]1[C@]32OO4` [Artemisinin, reference compound] are 1720 nM and 4.7 nM.
The corresponding values for `C[C@H]1[C@H](N2CCS(=O)(=O)CC2)O[C@@H]2O[C@@]3(C)CC[C@H]4[C@H](C)CC[C@@H]1[C@@]24OO3` [Artemisone, reference compound] are 178 nM and 0.7 nM.
`C[C@H]1[C@@H](O)O[C@@H]2O[C@@]3(C)CC[C@H]4[C@H](C)CC[C@@H]1[C@@]24OO3` [Artenimol, reference compound]: the figures for the IC50 in data set [3] (setting [11]) and in [2] (setting [12]) were 1560 nM and under 0.4 nM, respectively.
On the same counts, the results for `C[C@H]1[C@H](OC(=O)CCC(=O)O)O[C@@H]2O[C@@]3(C)CC[C@H]4[C@H](C)CC[C@@H]1[C@@]24OO3` [Artesunate, reference compound] are 246 nM and 0.9 nM.
On the same counts, the results for `CC[C@H]1OC(=O)[C@H](C)[C@@H](O[C@H]2C[C@@](C)(OC)[C@@H](O)[C@H](C)O2)[C@H](C)[C@@H](O[C@@H]2O[C@H](C)C[C@H](N(C)C)[C@H]2O)[C@](C)(O)C[C@@H](C)CN(C)[C@H](C)[C@@H](O)[C@]1(C)O` [Azithromycin, reference compound] are over 12500 nM and 257 nM.
In the case of `CCN(CC)CCCC(C)Nc1ccnc2cc(Cl)ccc12` (stereo not shown) [Chloroquine, reference compound], the IC50 in data set [3] (setting [13]) is over 12500 nM; in [2] (setting [14]), 2.1 nM.
With `CC(C)NC(=N)NC(=N)Nc1ccc(Cl)c(Cl)c1` [Chlorproguanil HCL, reference compound], the results for the IC50 in data set [1] and in data set [2] (setting [10]) were 500 nM and 4720 nM, respectively.
Regarding `CC1(C)N=C(N)N=C(N)N1c1ccc(Cl)cc1` [Cycloguanil, reference compound], the IC50 worked out at 7 nM in data set [3] (setting [11]) and 3.1 nM in data set [2] (setting [12]).
With `C[C@@H]1C[C@@H]([C@H](O)CC2CC(=O)NC(=O)C2)C(=O)[C@@H](C)C1` [Cycloheximide, reference compound], the IC50 in [3] (setting [13]) was 20.7 nM; in data set [2] (setting [14]), 1.8 nM.
With `Nc1ccc(S(=O)(=O)c2ccc(N)cc2)cc1` [Dapsone, reference compound], the results for the IC50 in data set [3] (setting [11]) and in [2] (setting [12]) were 2440 nM and over 62500 nM, respectively.
Regarding `CC(=O)N(O)CCCCCNC(=O)CCC(=O)N(O)CCCCCNC(=O)CCC(=O)N(O)CCCCCN` [Deferoxamine, reference compound], the IC50 in data set [3] (setting [11]) is over 12500 nM; in data set [2] (setting [12]), over 10000 nM.
As to `C[C@]12CC[C@H](OS(=O)(=O)O)CC1=CC[C@@H]1[C@@H]2CC[C@]2(C)C(=O)CC[C@@H]12` [Dehydroepiandrosterone sulphate, reference compound], the figures for the IC50 in data set [1] and in [2] (setting [10]) were over 12500 nM and over 62500 nM, respectively.
The corresponding values for `C[C@H]1c2cccc(O)c2C(O)=C2C(=O)[C@]3(O)C(O)=C(C(N)=O)C(=O)[C@@H](N(C)C)[C@@H]3[C@@H](O)[C@@H]21` [Doxycyclin, reference compound] are 11600 nM and 8820 nM.
On to `O=C(Nc1ccc(-c2nc3cc(NC(=O)c4ccc(Cl)cc4)ccc3[nH]2)cc1)c1ccc(Cl)cc1` [MMV006962], for which the inhibition (usually the drop in the measured response relative to a control, in per cent) at 0.1 µM is 34% in data set [4] (setting [15]) and -8% in data set [4] (setting [16]). In addition, the inhibition at 1 µM in [4] (setting [15]) is 25%; in data set [4] (setting [16]), 11%. Further, the inhibition at 10 µM in [4] (setting [15]) turned out to be 10%; in [4] (setting [16]) it was 17%. Moreover, the inhibition at 50 µM in data set [3] (setting [17]) amounted to 103%; in data set [3] (setting [18]) it was 103%; in data set [3] (setting [20]), 99%; in the data set on HepG2-A16-CD81EGFP cells [5], 99%. Also, the figures for the IC50 (in [3] (setting [19]); with HepG2-A16-CD81EGFP cells [5]) were 501 nM and 9200 nM, respectively. Besides, in the data set with HepG2-A16-CD81EGFP cells [5] (setting [21]), the cytotoxicity at 50 µM was determined as 96%.
Turning to `COc1ccccc1CNC(=O)CCn1c(=O)[nH]c2ccsc2c1=O` [MMV019066], the inhibition at 0.1 µM in [4] (setting [15]) is 3%; in [4] (setting [16]), 10%. Moreover, the inhibition at 1 µM in data set [4] (setting [15]) was -2%; in data set [4] (setting [16]), 11%. Also, the inhibition at 10 µM in [4] (setting [15]) was 5%; in [4] (setting [16]), 3%; in data set [3], 104%; with HepG2-A16-CD81EGFP cells [5], -2.17%. In addition, the IC50 in data set [6] is over 20000 nM; in data set [3] (setting [19]) it was 56.1 nM; with HepG2-A16-CD81EGFP cells [5], over 10000 nM. In data set [6], the Emax is 21%. The results for the inhibition at 50 µM in data set [3] (setting [17]) and in data set [3] (setting [18]) were 94% and 95%, respectively. In addition, the cytotoxicity at 50 µM in the data set with HepG2-A16-CD81EGFP cells [5] (setting [21]) was -14%; in the data set with HepG2-A16-CD81EGFP cells [5] (setting [22]), -5.32%.
In the case of `O=C(Nc1cccc(C(F)(F)F)c1)c1cc(Cl)ccc1O` [MMV665807], the results for the inhibition at 0.1 µM in data set [4] (setting [15]) and in data set [4] (setting [16]) were 6% and 17%, respectively. For the same compound, the inhibition at 1 µM worked out at 10% in data set [4] (setting [15]) and 34% in data set [4] (setting [16]). Further, the inhibition at 10 µM in data set [4] (setting [15]) turned out to be 12%; in data set [4] (setting [16]), 24%. Further, the inhibition at 50 µM in [3] (setting [17]) was determined as 103%; in data set [3] (setting [18]), 103%; in data set [3] (setting [20]), 101%; with HepG2-A16-CD81EGFP cells [5], 94%. Further, the IC50 in [3] (setting [19]) is 210 nM; in the data set on HepG2-A16-CD81EGFP cells [5], 910 nM. Further, the cytotoxicity at 50 µM in the data set with HepG2-A16-CD81EGFP cells [5] (setting [21]) came out at 98%; in the data set on HepG2-A16-CD81EGFP cells [5] (setting [22]), 99%.
As to `COc1ccc(C2=C(c3ccc(OC)cc3)C3(c4ccccc4)C(=O)C2(c2ccccc2)C2C(=O)N(c4ccc(C)cc4)C(=O)C23)cc1` (stereo not shown) [MMV666101], the inhibition at 0.1 µM in [4] (setting [15]) stood at 7%; in data set [4] (setting [16]), 4%. In addition, the inhibition at 1 µM stood at 11% in [4] (setting [15]) and 19% in data set [4] (setting [16]). Further, the inhibition at 10 µM in [4] (setting [15]) worked out at 17%; in data set [4] (setting [16]) it was 11%; in data set [3] it was 106%; with HepG2-A16-CD81EGFP cells [5], 1.34%. The IC50 in [6] was over 20000 nM; in data set [3] (setting [19]) it was 201 nM; with HepG2-A16-CD81EGFP cells [5], over 10000 nM. In data set [6], the Emax was 18%. The inhibition at 50 µM in data set [3] (setting [17]) was 96%; in [3] (setting [18]), 100%. In addition, the figures for the cytotoxicity at 50 µM in the data set on HepG2-A16-CD81EGFP cells [5] (setting [21]) and in the data set on HepG2-A16-CD81EGFP cells [5] (setting [22]) were 0.41% and 3.59%, respectively.
As to `COCCN(C(=O)Cc1cccs1)C(C(=O)NCc1ccc(OC)cc1)c1ccc(C(C)C)cc1` (stereo not shown) [MMV666105], the inhibition at 50 µM in data set [3] (setting [17]) stood at 104%; in data set [3] (setting [18]) it was 105%; in the data set with HepG2-A16-CD81EGFP cells [8], 99.9%; in the data set with HepG2-A16-CD81EGFP cells [9], 98.8%. Also, in the data set with HepG2-A16-CD81EGFP cells [7], the “HepG2 Tox% @ 50 uM rep2” value came out at 100%.
Take `CC(=O)N[C@@H](C(=O)O)C(C)(C)S` [N-acetyl-D-penicillamine, reference compound]: the figures for the IC50 in data set [1] and in data set [2] (setting [10]) were over 12500 nM and over 62500 nM, respectively.
On the same counts, the results for `COc1cc(N[C@H](C)CCCN)c2nccc(C)c2c1Oc1ccc(Cl)c(Cl)c1` [NPC-1161B, reference compound] are 3550 nM and 1320 nM.
For `CC(C)(C)NCc1cc(Nc2ccnc3cc(Cl)ccc23)c2c(c1O)CCCC2` [Naphthoquine, reference compound], the IC50 is 391 nM in data set [1] and 11.4 nM in data set [2] (setting [10]).
The corresponding values for `CCc1nc(N)nc(N)c1OCCCOc1ccccc1CCC(=O)O` [P218.HCl, reference compound] are 0.916 nM and 0.4 nM.
On to `Cc1cc(NS(=O)(=O)c2ccc(N)cc2)no1` [Sulfamethoxazole], for which the IC50 in [2] (setting [12]) was over 10000 nM.
The same measure, in the same setting: with `COc1cc(Cc2cnc(N)nc2N)cc(OC)c1OC` [Trimethoprim] the figure was 5640 nM.
In the case of Trans-Mirincamycin [reference compound], the IC50 was over 12500 nM in [1] and over 10000 nM in [2] (setting [10]).
